Like-named read-outs stand apart in the source and are kept apart here.
Legend:
[1] = target: T1, human Gcg receptor (hGcgR) (Homo sapiens, UniProt P47871); assay: [125I]-Glucagon binding, SPA with membranes of HEK293 cells expressing hGcgR; details: human GcgR; geometric mean (SEM, n); read-out: Binding Affinity Ki, nM (SEM, n) hGCGR
T1 construct: expressed in transfected cells; crude membranes

hGIPR = target: T2, hGIPR (Homo sapiens, UniProt P48546); assay: Functional cAMP formation (HTRF) in HEK-293 clonal cells expressing hGIPR, 0.1% bovine casein, without or with 1.0% human serum albumin; format: cell-based; details: 37° C.; for Emax: read-out: hGIPR Emax, % ± SEM; for EC50: read-out: hGIPR EC50, nM (SEM, n)
T2 construct: expressed in transfected cells
T2 sequence (P48546 22-466): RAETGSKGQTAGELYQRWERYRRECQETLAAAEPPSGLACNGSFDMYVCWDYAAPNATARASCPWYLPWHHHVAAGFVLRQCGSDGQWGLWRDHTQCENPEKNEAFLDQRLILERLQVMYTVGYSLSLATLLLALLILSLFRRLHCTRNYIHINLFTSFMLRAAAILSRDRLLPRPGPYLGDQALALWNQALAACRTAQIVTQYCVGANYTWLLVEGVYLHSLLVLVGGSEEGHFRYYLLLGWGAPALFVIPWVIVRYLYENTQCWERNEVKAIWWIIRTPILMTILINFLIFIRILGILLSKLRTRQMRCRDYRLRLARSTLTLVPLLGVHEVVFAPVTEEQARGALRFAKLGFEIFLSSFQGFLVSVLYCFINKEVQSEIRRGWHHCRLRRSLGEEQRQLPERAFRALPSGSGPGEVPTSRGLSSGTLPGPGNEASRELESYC
How it was run: (§1)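 Cells were stimulated with peptide for 30 min at 37° C, then intracellular cAMP was measured by competitive HTRF (665/620 nm ratio) and converted to nM using a cAMP standard curve. Relative EC50 and Emax came from four-parameter logistic fits of percent maximal response against peptide concentration.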

hGCGR = target: T3, hGCGR (Homo sapiens, UniProt P47871); assay: Functional cAMP formation (HTRF) in HEK-293 clonal cells expressing hGCGR, 0.1% bovine casein, without or with 1.0% human serum albumin; format: cell-based; details: read-out: hGCGR EC50, nM (SEM, n)
T3 construct: expressed in transfected cells
How it was run: as §1

hGLP-1R = hGLP-1R (Homo sapiens, UniProt P43220); assay: Functional cAMP formation (HTRF) in HEK-293 clonal cells expressing hGLP-1R, 0.1% bovine casein, without or with 1.0% human serum albumin; format: cell-based; parameters: expressed in transfected cells; details: for EC50: cAMP, read-out: hGLP-1R EC50, nM (SEM, n)
How it was run: as §1

T3 sequence (P47871 26-477): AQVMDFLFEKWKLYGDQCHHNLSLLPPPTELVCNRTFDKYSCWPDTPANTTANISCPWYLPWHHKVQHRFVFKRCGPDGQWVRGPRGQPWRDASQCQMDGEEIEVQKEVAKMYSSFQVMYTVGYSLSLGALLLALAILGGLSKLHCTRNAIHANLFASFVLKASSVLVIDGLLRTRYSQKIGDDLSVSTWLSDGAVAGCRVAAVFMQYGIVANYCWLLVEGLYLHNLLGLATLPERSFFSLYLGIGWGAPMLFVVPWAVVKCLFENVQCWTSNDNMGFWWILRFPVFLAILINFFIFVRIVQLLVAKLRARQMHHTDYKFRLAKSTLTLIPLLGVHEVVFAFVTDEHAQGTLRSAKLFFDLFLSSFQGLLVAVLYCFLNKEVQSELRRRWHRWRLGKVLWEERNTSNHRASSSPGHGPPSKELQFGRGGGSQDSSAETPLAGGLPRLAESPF
Chain of hGLP-1R (P43220 24-463): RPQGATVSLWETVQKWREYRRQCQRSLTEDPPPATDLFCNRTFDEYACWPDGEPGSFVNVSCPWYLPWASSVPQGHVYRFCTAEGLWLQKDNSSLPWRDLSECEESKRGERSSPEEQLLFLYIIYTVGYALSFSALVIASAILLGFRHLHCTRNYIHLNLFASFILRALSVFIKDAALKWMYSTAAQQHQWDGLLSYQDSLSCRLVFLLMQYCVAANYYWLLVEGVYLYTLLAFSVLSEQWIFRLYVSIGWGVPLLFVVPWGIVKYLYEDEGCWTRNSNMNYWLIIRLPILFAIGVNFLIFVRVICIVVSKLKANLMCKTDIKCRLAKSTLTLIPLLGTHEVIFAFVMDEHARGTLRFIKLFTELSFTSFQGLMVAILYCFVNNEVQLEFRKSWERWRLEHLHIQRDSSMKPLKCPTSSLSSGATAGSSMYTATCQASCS
T1 sequence (P47871 26-477): as the sequence (P47871 26-477) above

Row | SMILES | Ki [1] | Emax (hGIPR; HEK293, cAMP, 0.1% bovine casein and 1.0% human serum albumin, percent of maximal response to GIP(1-42)NH2) | EC50 (hGIPR; cAMP, 0.1% bovine casein (no human serum albumin), geometric mean) | EC50 (hGIPR; cAMP, 0.1% bovine casein and 1.0% human serum albumin, geometric mean (SEM, n)) | EC50 (hGCGR; cAMP, 37° C., 0.1% bovine casein (no human serum albumin), geometric mean) | EC50 (hGCGR; cAMP, 37° C., 0.1% bovine casein and 1.0% human serum albumin, geometric mean (SEM, n)) | Emax (hGLP-1R; HEK293, cAMP, 37° C., 0.1% bovine casein, percent of maximal response to GLP-1(7-36)NH2, arithmetic mean, read-out: hGLP-1R Emax, % ± SEM) | EC50 (hGLP-1R; 37° C., 0.1% bovine casein (no human serum albumin), geometric mean) | EC50 (hGLP-1R; 37° C., 0.1% bovine casein and 1.0% human serum albumin, geometric mean (SEM, n)) | EC50 (hGIPR; 0.1% bovine casein and 1.0% human serum albumin, geometric mean) | Emax (hGIPR; HEK293, 0.1% bovine casein and 1.0% human serum albumin, percent of maximal response to GIP(1-42)NH2) | Emax (hGIPR; HEK293, percent of maximal response to GIP(1-42)NH2, 0.1% bovine casein, arithmetic mean) | EC50 (hGCGR; 0.1% bovine casein and 1.0% human serum albumin, 37° C., geometric mean) | EC50 (hGCGR; cAMP, incubated at 37° C., 0.1% bovine casein (no human serum albumin), geometric mean) | EC50 (hGLP-1R; incubated at 37° C., 0.1% bovine casein (no human serum albumin), geometric mean)
1 | CC[C@H](C)[C@H](NC(=O)[C@H](CC(C)C)NC(=O)[C@](C)(Cc1ccc(O)cc1)NC(=O)[C@@H](CCC(=O)O)NC(=O)[C@@H](NC(=O)[C@H](Cc1ccccc1)NC(=O)[C@H](CCC(=O)O)NC(=O)C(C)(C)NC(=O)[C@H](CCC(N)=O)NC(=O)[C@H](C)NC(=O)[C@H](CCCCNC(=O)COCCOCCNC(=O)CC[C@H](NC(=O)CCCCCCCCCCCCC(=O)O)C(=O)O)NC(=O)[C@H](CCCN)NC(=O)[C@H](CC(=O)O)NC(=O)[C@H](CC(C)C)NC(=O)[C@](C)(CC(C)C)NC(=O)[C@@H](NC(=O)C(C)(C)NC(=O)[C@H](Cc1ccncc1)NC(=O)[C@H](CC(=O)O)NC(=O)[C@H](CO)NC(=O)[C@@H](NC(=O)[C@](C)(Cc1ccccc1F)NC(=O)[C@@H](NC(=O)CNC(=O)[C@H](CCC(=O)O)NC(=O)C(C)(C)NC(=O)[C@@H](N)Cc1ccc(O)cc1)[C@@H](C)O)[C@@H](C)O)[C@@H](C)CC)[C@@H](C)CC)C(=O)N[C@@H](CCC(=O)O)C(=O)NCC(=O)NCC(=O)N1CCC[C@H]1C(=O)N[C@@H](CO)C(=O)N[C@@H](CO)C(=O)NCC(=O)N[C@@H](C)C(=O)N1CCC[C@H]1C(=O)N1CCC[C@H]1C(=O)N1CCC[C@H]1C(=O)N[C@@H](CO)C(=O)N[C@@H](CCCCNC(=O)COCCOCCNC(=O)CC[C@H](NC(=O)CCCCCCCCCCCCC(=O)O)C(=O)O)C(N)=O [Example 338] | > 957 nM | 83.9% | 0.0157 nM | 1.24 nM | > 10100 nM | > 10100 nM | 109% | 0.468 nM | 36.6 nM | – | – | – | – | – | –
2 | CC[C@H](C)[C@H](NC(=O)[C@H](CC(C)C)NC(=O)[C@](C)(Cc1ccc(O)cc1)NC(=O)[C@@H](CCC(=O)O)NC(=O)[C@@H](NC(=O)[C@H](Cc1ccccc1)NC(=O)[C@H](CCC(=O)O)NC(=O)C(C)(C)NC(=O)[C@H](CCC(N)=O)NC(=O)[C@H](C)NC(=O)[C@H](CCCCNC(=O)COCCOCCNC(=O)COCCOCCNC(=O)CC[C@H](NC(=O)CCCCCCCCCCCCC(=O)O)C(=O)O)NC(=O)[C@H](CCCN)NC(=O)[C@H](CC(=O)O)NC(=O)[C@H](CC(C)C)NC(=O)[C@](C)(CC(C)C)NC(=O)[C@H](CCCCNC(=O)COCCOCCNC(=O)COCCOCCNC(=O)CC[C@H](NC(=O)CCCCCCCCCCCCC(=O)O)C(=O)O)NC(=O)[C@H](CO)NC(=O)[C@H](Cc1ccncc1)NC(=O)[C@H](CC(=O)O)NC(=O)[C@H](CO)NC(=O)[C@@H](NC(=O)[C@](C)(Cc1ccccc1F)NC(=O)[C@@H](NC(=O)CNC(=O)[C@H](CCC(=O)O)NC(=O)C(C)(C)NC(=O)[C@@H](N)Cc1ccc(O)cc1)[C@@H](C)O)[C@@H](C)O)[C@@H](C)CC)C(=O)N[C@@H](CCC(=O)O)C(=O)NCC(=O)NCC(=O)N1CCC[C@H]1C(=O)N[C@@H](CO)C(=O)N[C@@H](CO)C(=O)NCC(=O)N[C@@H](C)C(=O)N1CCC[C@H]1C(=O)N1CCC[C@H]1C(=O)N1CCC[C@H]1C(=O)N[C@@H](CO)C(N)=O [Example 28] | > 966 nM | – | – | – | – | – | – | – | – | 2.08 nM | 93 ± 7.02% | 95.4 ± 1.58% | > 9950 nM | > 9950 nM | 2.65 nM
